Assay results reported in patent US20260275279A1, “THYROCYTES AND USES THEREOF” (LifeNet Health, priority 2023, published 2026).
Like-named read-outs stand apart in the source and are kept apart here.

Experiments:
[1] = test system: 3D thyrocyte cell culture; conditions: 1.0×10^−10 to 1.0×10^−4 M
Procedure: After collecting media for T4 measurement, backing tape was put on the back of the 3D culture 96-well plate. 100 μL of a 1:1 mixture of CellTiter-Glo® Luminescent Cell Viability Assay (Promega, Madison, WI) and HTCM was added into each well of the 3D cell culture plate. The plate was covered and shaken for 2 minutes on an orbital plate shaker at 500 rpm followed by a 10 minute incubation in the dark without shaking. Luminescence reading was recorded using a CLARIOStar (BMG Labtech) microplate reader.

[2] = test system: T3/T4 synthesis; assay: Example 10 3D culture TDC screening, T3/T4 synthesis by ELISA and LC-MS/MS; assay type: cell-based, human
Procedure: For TDC Screening, these procedures were followed: • Prepare the Plate by adding 50 μL of 10 mg/ml of Matrigel, then polymerize the Matrigel at 37° C. for 1 hr. • Thaw the thyrocytes in 37° C. water bath. • Resuspend the cells in humanized medium (h7H). • Seed the cells at the optimal seeding density, 7,500 cells per 0.32 cm2. • Culture the cells in h7H medium. • Exchange the medium on Day 2, 5, 7, 9 and 12. • Start stimulating the cells with activators (e.g., bTSH, hTSH, M22, K!-18, ML-109) on Day 2 • Treatment with the activator is between Day 2-14 • Compound treatment starts on Day 9. • 8 doses: Concentrations (10^−10 to 10^−4M) • Serial dilutions were made in DMSO (Dilution factor 1:1000) • Compounds were added to the media • Day 12: Refresh media with the compound • Day 14: Collect the supernatant for the T4 analysis by ELISA and LC-MS/MS.

[3] = test system: T4 synthesis; assay: Reference chemical evaluation: inhibition of T4 synthesis in 3D microtissue cultures; assay type: cell-based, human; conditions: for effect on T4 levels: 0.0001 to 100 μM; for IC50: 120-h treatment days 9-14, 1 mIU/mL bovine TSH, 7,500 cells/well, read-out: Average half-maximal inhibitory concentrations (IC50), T4 synthesis
Procedure: 3D cultures with cell seeding density of 7,500 cells/well were treated with 1 mIU/mL bovine TSH on days 2, 5, 7, 9, and 12. For each studied compound, cells were dosed on days 9 and 12 with concentrations ranging from 0.0001 to 100 μM across a log-fold titration. T4 levels were measured as described. All measured data were normalized to DMSO vehicle control.
Images are shown from representative donor lots. Values were normalized to the number of cells seeded per well. Significance was calculated in MiniTab (State College, PA) using either Student's t-test between 2 groups or One-way ANOVA with Tukey post hoc testing when comparing 3 groups or more to determine statistical significance with 95% confidence and *p<0.05 for statistical significance. GraphPad Prism v.9 was used to determine EC50 and EC90. Four-parameter nonlinear regression fit was used to determine the half-maximal inhibition concentration IC50 using GraphPad Prism v.9.
Established antagonists of thyroid hormone production were selected to determine the concentration-response profiles in 3D cultures for TDC screening purposes (FIG. 21).

## CCCc1cc(=O)[nH]c(=S)[nH]1 [6-propyl-2-thiouracil]
[1]
  toxicity of inhibitor concentrations to the cells: not toxic to the cells with the exception of 6-propyl-2-thiouracil for 2021159 at the highest dose
[2]
  T3/T4 synthesis: inhibited
[3]
  effect on T4 levels: consistent concentration-dependent decrease in T4 levels
  IC50: 767 nM
[3]; Homo sapiens, 120 h
  IC50: 659 nM

## Cn1cc[nH]c1=S [methimazole, Methimazole]
[2]
  T3/T4 synthesis: inhibited
[3]
  effect on T4 levels: consistent concentration-dependent decrease in T4 levels
